Consider one compound from US20210353633A1, “CYCLODEXTRIN-BASED FORMULATION OF A BCL-2 INHIBITOR” (LES LABORATOIRES SERVIER, priority 2018, published 2021).

A short description of the data set: Test of maximum solubility of Compound A, HCl in a HP-β-cyclodextrin as a function of the pH. In kind it is physicochemical. The following applies: Cavitron W7HP5 solution, aqueous with cosolvent or surfactant or cyclodextrin, thermodynamic from solid, Cavitron W7HP5 20% by weight, read-out: Solubility after 24 h. As to the method: The solubility of Compound A, HCl was studied in the presence of a HP-β-cyclodextrin as a function of the pH by means of various buffers (acetate pH=4 and phosphate pH=7.4).
0.75 g of sodium acetate trihydrate (NaC2H3O2, 3H2O) is introduced into a 250 mL graduated flask. 3.5 mL of 2 N acetic acid solution (produced from glacial acetic acid) are added. The volume is then made up to 250 mL by means of 0.9% NaCl solution, and the whole is then stirred. The pH is then adjusted to 4 by means of 1 N HCl solution.
2.075 g of monobasic potassium phosphate (KH2PO4) and 0.238 g of dibasic sodium phosphate (Na2HPO4) are dissolved in 100 mL of water. The whole is stirred until solubilisation is complete. The volume is then made up to 250 mL by means of 0.9% NaCl solution. The pH is adjusted to the desired value (7.4) by means of 1N sodium hydroxide solution.
2 g of the cyclodextrin studied (Cavitron™ W7HP5) are weighed into a 10 mL graduated flask. The volume is then made up to 10 mL by means of a water/0.9% NaCl mixture (80/20) or an acetate or phosphate buffer solution, depending on the desired pH.
Approximately 10 mg of Compound A, HCl are weighed. 1 mL of the medium containing the carrier to be tested, that is to say Cavitron™ W7HP5 without pH adjustment, Cavitron™ W7HP5 adjusted to pH=4 or Cavitron™ W7HP5 adjusted to pH=7.4, is then added. The whole is then placed under magnetic stirring. Then, 5 mg of Compound A, HCl are added. The operation is repeated if the compound solubilises. The mixture is stirred for 24 hours. The suspension so obtained is passed through a 0.45 μm filter before being analysed by HPLC chromatography.

For orientation: solubility means the dissolved amount per volume that the medium holds.

Counter-ions that a name gives are not always drawn. Like-named read-outs stand apart in the source and are kept apart here.

In the case of `Cc1c(N(C(=O)c2cc(-c3cc(Cl)ccc3C(=O)N3Cc4ccccc4C[C@H]3CN3CCOCC3)n(C)c2C)c2ccc(O)cc2)cc(C#N)n1C` [Compound A, HCl, 5-(5-chloro-2-{[(3S)-3-(morpholin-4-ylmethyl)-3,4-dihydroisoquinolin-2(1H)-yl]carbonyl}phenyl)-N-(5-cyano-1,2-dimethyl-1H-pyrrol-3-yl)-N-(4-hydroxyphenyl)-1,2-dimethyl-1H-pyrrole-3-carboxamide], the solubility at 24 h reads like this: (pH = 3.8, i.e. pH not adjusted) 24.6 mg/mL; (pH = 4 (acetate buffer)) 13 mg/mL; (pH = 7.4 (phosphate buffer)) 1.69 mg/mL.
